Laboratory results published in patent US20070196902A1, “Method of detecting AZT resistance in HIV” (University of Pittsburgh, priority 2006, published 2007).
Where two headings read alike, the source gives them in different places.

How the values were obtained:
[1] = tested on: HIVLAI RT D67N/K70R/T215I/A371V/Q509L; test: Drug susceptibility assay in P4/R5 cells, site-directed mutant; format: cell-based, HIV-1
Procedure: (§1) Drug susceptibility assays. NRTI susceptibility was determined in P4/R5 cells as described previously (Parikh, U. M., et al. 2005. Antimicrob. Agents Chemother. 49:1139-44). Briefly, threefold dilutions of inhibitor were added to P4/R5 cells in triplicate and cells were infected with an amount of virus that produced 100 relative units of light (RLU) in no drug, virus control wells. After 48 hours, the cells were lysed (Gal-Screen; Tropix/Applied Biosystems, Foster City, Calif.) and the RLU was measured using a ThermoLabSystems luminometer (Waltham, Mass.). The IC50 and fold-resistance were calculated as described above. IC50 values from at least three independent experiments were log10 transformed and compared for statistically significant differences using the two-sample Student's t test.
(§2) Construction of mutant recombinant HIV-1. Mutant recombinant plasmid clones of virus were generated by oligonucleotide site-directed mutagenesis as described previously (Shi, C., and J. W. Mellors. 1997. A recombinant retroviral system for rapid […] analysis of human immunodeficiency virus type 1 susceptibility to reverse transcriptase inhibitors. Antimicrob. Agents Chemother. 41:2781-5), using the p6HRT-MO plasmid. p6HRT-MO contains the entire RT and protease coding sequence as previously described (Le Grice, S. F., and F. Gruninger-Leitch. 1990. Rapid purification of homodimer and heterodimer HIV-1 reverse transcriptase by metal chelate affinity chromatography. Eur. J. Biochem. 187:307-14) and four silent restriction sites (Xma I, Mlu I, Xba I, and NgoM IV from the 5′ to 3′ end of RT at codons 14, 358, 490 and 554, respectively). After site-directed mutagenesis (QIAamp kit, QIAGEN, Valencia, Calif.), the mutated RT was ligated into pxxHIV-1LAI MO that contains the entire genome of HIV-1LAI and the same silent restriction sites as p6HRT-MO. Infectious virus was generated by electroporating the mutated xxHIV-1LAI MO plasmid into MT-2 cells as described above. All mutations in recombinant viruses were confirmed by full-length sequencing of the entire RT coding region.

[2] = tested on: HIVLAI RT 67N/70R/215I/509L; test: as above; format: cell-based, HIV-1
Procedure: as §1, §2

HIVLAI RT 67N/70R/509L = test: as above; format: cell-based, HIV-1
Procedure: as §1, §2

[3] = tested on: wild-type HIV-1LAI passaged in MT-2 cells in increasing concentrations of AZT; test: AZT susceptibility of virus passaged in increasing AZT, selection starting with wild-type HIV-1LAI; single-cycle assay in P4/R5 cells; format: cell-based; conditions: for Fold-Resistance: compared to wild-type passaged without AZT
Procedure: Selection of AZT-resistant viruses. Resistant virus was selected in two independent experiments by the passage of wild-type HIVLAI or HIVLAI containing the M41L/L210W/T215Y mutations (AZT^R HIVLAI) in MT-2 cells in increasing concentrations of AZT. To initiate each selection experiment, MT-2 cells (1×10^6) were pretreated for two hours with 0.5 μM and 25 μM AZT for wild-type HIVLAI and AZT^R HIVLAI, respectively, before virus was added. Viral replication was monitored by CPE. At +3/4 CPE (3 or 4 syncytia per field at 100× magnified field), cell-free supernatant was harvested and 0.1 ml of supernatant was added to fresh MT-2 cells to initiate a new passage. The concentration of AZT was doubled every three passages. The selection pressure was increased from an initial AZT concentration of 0.5 μM to a final concentration of 32 μM for wild-type HIVLAI, and from 25 μM to 150 μM for the AZT^R HIVLAI. The concentration of drug required to inhibit viral replication by 50% (IC50) was calculated every five passages to identify changes in AZT susceptibility, and fold-resistance was determined by dividing the IC50 of the mutant virus by the IC50 of wild-type HIV-1LAI. The genotype of the passaged virus was determined as described above.
as §1
Selection of AZT-resistant virus. Two independent AZT selection experiments were conducted. One starting with wild-type HIV-1LAI and the second starting with AZT HIV-1LAI (encoding M41L/L210W/T215Y). Both viruses were serially passaged in MT-2 cells in increasing concentrations of AZT. After every 5 passages, AZT susceptibility was measured in a single-cycle viral replication assay in P4/R5 cells (described in Materials and Methods). Viral RNA was extracted, converted to cDNA and the entire coding region of RT (residues 1-560) was PCR amplified and sequenced to monitor the appearance of mutations. In the selection experiment starting with HIV-1LAI, AZT susceptibility was reduced 66-fold by passage 35 and two polymerase domain TAMs were identified: D67N and K70R (Table 1).

[4] = tested on: HIV-1 RT N3481 with "classic" TAMs; conditions: N3481 present with "classic" TAMs; cited from earlier work
[5] = tested on: HIVLAI RT 67N/70R/215F/509L; test: Drug susceptibility assay in P4/R5 cells, site-directed mutant; format: cell-based, HIV-1
[6] = tested on: HIV-1 RT D549N with TAMs D67N, K70R, T215Y and K219Q; conditions: D549N present with TAMs D67N; cited from earlier work
[7] = tested on: HIV-1 RT G335C with "classic" TAMs; conditions: G335C present with "classic" TAMs; cited from earlier work
[8] = tested on: HIV-1 RT mutants with A371V and/or Q509L, alone or in combination with TAMs; test: Drug susceptibility of site-directed mutants, comparisons between mutants with and without A371V/Q509L; format: cell-based
[9] = tested on: HIV-1 RT A360I with "classic" TAMs; conditions: A360I present with "classic" TAMs; cited from earlier work

SMILES: Cc1cn([C@H]2C[C@H](N=[N+]=[N-])[C@@H](CO)O2)c(=O)[nH]c1=O [AZT, 3′-azido-3′-dideoxythymidine]
- Fold-Resistance ([1]; 67N/70R/215I/371V/509L compared to wild-type): 41 fold
- IC50 ([1]; Human immunodeficiency virus 1, P4/R5, 67N/70R/215I/371V/509L, mean ± SD): 9.4 ± 6.7 µM
- Fold-Resistance ([2]; 67N/70R/215I/509L compared to wild-type): 14 fold
- IC50 ([2]; Human immunodeficiency virus 1, P4/R5, 67N/70R/215I/509L, mean ± SD): 3000 ± 2200 nM
- Fold-Resistance (HIVLAI RT 67N/70R/509L; 67N/70R/509L compared to wild-type): 14 fold
- IC50 (HIVLAI RT 67N/70R/509L; Human immunodeficiency virus 1, P4/R5, 67N/70R/509L, mean ± SD): 3000 ± 1000 nM
- IC50 ([3]; Human immunodeficiency virus 1, MT2, passage 1, AZT concentration 0.5 μM, read-out: IC50): 200 nM
- IC50 ([3]; Human immunodeficiency virus 1, MT2, passage 10, AZT concentration 0.5 μM, read-out: IC50): 300 nM
- IC50 ([3]; Human immunodeficiency virus 1, MT2, passage 20, AZT concentration 0.5 μM, read-out: IC50): 700 nM
- IC50 ([3]; Human immunodeficiency virus 1, MT2, passage 25, AZT concentration 1.0 μM, mutations: None, read-out: IC50): 700 nM
- IC50 ([3]; Human immunodeficiency virus 1, MT2, passage 30, AZT concentration 2.0 μM, D67D/N, K70K/R, read-out: IC50): 3000 nM
- IC50 ([3]; Human immunodeficiency virus 1, MT2, passage 35, AZT concentration 2.0 μM, D67N, K70R, read-out: IC50): 10000 nM
- IC50 ([3]; Human immunodeficiency virus 1, MT2, passage 40, AZT concentration 4.0 μM, D67N, K70R, A371A/V, Q509Q/L, read-out: IC50): 10000 nM
- IC50 ([3]; Human immunodeficiency virus 1, MT2, passage 55, AZT concentration 16 μM, D67N, K70R, T215T/I, A371A/V, Q509Q/L, read-out: IC50): 39000 nM
- IC50 ([3]; Human immunodeficiency virus 1, MT2, passage 60, AZT concentration 32 μM, D67N, K70R, T215I, A371A/V, Q509L, read-out: IC50): 56000 nM
- IC50 ([3]; Human immunodeficiency virus 1, MT2, passage 65, AZT concentration 32 μM, D67N, K70R, T215I/F, A371A/V, Q509L): ≥ 810000 nM
- Fold-Resistance ([3]; passage 25, mutations: None): 4.1 fold
- Fold-Resistance ([3]; passage 30, D67D/N, K70K/R): 26 fold
- Fold-Resistance ([3]; passage 35, D67N, K70R): 66 fold
- Fold-Resistance ([3]; passage 40, D67N, K70R, A371A/V, Q509Q/L): 86 fold
- Fold-Resistance ([3]; passage 55, D67N, K70R, T215T/I, A371A/V, Q509Q/L): 255 fold
- Fold-Resistance ([3]; passage 60, D67N, K70R, T215I, A371A/V, Q509L): 489 fold
- reduction of AZT susceptibility [4]: 35 fold
- Fold-Resistance ([5]; 67N/70R/215F/509L compared to wild-type): 128 fold
- IC50 ([5]; Human immunodeficiency virus 1, P4/R5, 67N/70R/215F/509L, mean ± SD): 28 ± 17 µM
- increase in resistance [6]: 1,230 fold
- reduction of AZT susceptibility [7]: 30 fold
- greater AZT resistance conferred by T215F than T215I ([8]; T215F versus T215I): ~25 fold
- AZT resistance conferred by A371V and Q509L, alone or together ([8]; in the absence of TAMs): did not confer AZT resistance
- reduction of AZT susceptibility [9]: 30 fold
